From patent US20240216401A1, “COMBINATION THERAPY BY USING AKR1C3-ACTIVATED COMPOUND WITH IMMUNE CHECKPOINT INHIBITOR” (OBI Pharma, Inc., priority 2021, published 2024)
Values joined by “and” are separate entries in the source; they are usually repeats but may differ in a detail not shown here. Identical values can stand only once.

Key:
Type in all cases: in vivo, Mus musculus
[1] = system: HepG2 tumor; assay: Example 1: tumor volume, tumor weight and TGI in HepG2 tumor bearing humanized mice
Experimental: (§1) Each group contains five mice. The human hepatocellular carcinoma cell line HepG2 were subcutaneously inoculated to the advanced immune deficiency mice. Total of 30 mice were included in this study.
2.2. […] The subcutaneous injection volume was […].
(§2) 3.1. […] The injection was performed using insulin syringe with the dosage of 10 mg/kg (Dosage of injection was changed to 20 mg/kg from Day 15) and injection volume of 10 mL/kg. […] The reference item was administered for G1. The procedure followed the standards of sample administration.
(§3) 3.2. The test item anti-hPD-L1 antibody or reference items were intraperitoneally injected to the mice on Day 8 after the inoculation of tumor cells. The injection was performed using insulin syringe with the dosage of 10 mg/kg (Dosage of injection was changed to 20 mg/kg from Day 15) and injection volume of 10 mL/kg. The test item anti-hPD-L1 was continuously administered on Day 8, 11, 15, 18, 22, 25, 29 and 32 for G4 and G6. The reference item was administered for G1. The procedure followed the standards of sample administration.
(§4) 3.3. […] The injection was performed using insulin syringe with the dosage of 1 mg/kg and injection volume of 5 mL/kg. […] The reference item was administered for G1. The procedure followed the standards of sample administration.
The measurement was performed from the next day of the inoculation. The tumor volumes were measured and recorded twice a week (Mon., Thur.). Tumor volume was calculated by ellipsoid equation according to the records ((major axis×minor axis×minor axis)×(π/6)).
Tumor volumes were used to calculate tumor growth inhibition (TGI) rates according to the following formula: TGI (%)=[1−(Ti−T0)/(Ci−C0)]×100, where Ti and Ci indicate the mean tumor volume in the treatment groups and vehicle group at the end of the experiment (Day 35). Whereas, T0 and C0 indicate the mean tumor volumes in the treatment group and vehicle group at the beginning of the experiment (Day 1).
(§5) Mice were sacrificed by CO2 euthanasia at the end of the study duration, and the connective tissue around tumor was resected. The tumor samples were then removed and weighed. The half tissue was fixed in 10% formaldehyde and then embedded in paraffin; the other half was prepared for the isolation of tumor-infiltrating lymphocytes (TILs).

[2] = system: CD4^+ T helper cells in tumor-infiltrating lymphocytes; assay: Example 1: flow cytometry, percentage of TH cells in TILs; settings: individual mice
Experimental: as §5
(§6) The half of mouse tumors were dissected into smaller fragments using scalpels and then digested with a cocktail of collagenase, DNase I, and Hyaluronidase (Collagenase #C5138, DNase I #D5025, Hyaluronidase #H6254, SigmaAldrich) for at least 2 hours.
(§7) Cells were stained with the fluorescently conjugated surface antibodies and incubated for 30 minutes at 4° C., and then resuspended in staining buffer for flow cytometric analysis. Flow cytometry was done using a Navios EX Flow Cytometer (Beckman Coulter). Data were analyzed using the Kaluza Analysis Software (Beckman Coulter).

[3] = system: CD8^+ cytotoxic T cells (CTL) in tumor-infiltrating lymphocytes; assay: Example 1: flow cytometry, percentage of CTL cells in TILs
Experimental: as §5, §6, §7

[4] = system: NK cells in tumor-infiltrating lymphocytes; assay: Example 1: flow cytometry, percentage of NK cells in TILs; settings: individual mice
Experimental: as §5, §6, §7

[5] = system: PD-L1^+ cells in tumor-infiltrating lymphocytes; assay: Example 1: flow cytometry, percentage of PD-L1 cells in TILs; settings: individual animal
Experimental: as §5, §6, §7

[6] = Example 1: body weight and mortality of HepG2 tumor bearing humanized mice; settings: OBI-3424 1 mg/kg IV, antibody 10 mg/kg IP (20 from Day 15)
Experimental: as §1, §2, §3, §4
The measurement was performed from the next day of the inoculation. The animal body weights were measured and recorded twice per week.

[7] = TILs, flow cytometer, individual mice
[8] = TILs, gate CD45^+CD8^+ cells, individual mice

anti-hPD-1: Anti-Human PD-1 antibody, Pembrolizumab, Merck & Co., Inc.
Tumor volume, Mean ([1]; D 1, group mean, OBI-3424 1 mg/kg IV, antibody 10 mg/kg IP (20 from Day 15)): 354.80 mm^3
Tumor volume, Mean ([1]; D 4, group mean, OBI-3424 1 mg/kg IV, antibody 10 mg/kg IP (20 from Day 15)): 269.37 mm^3
Tumor volume, Mean ([1]; D 7, group mean, OBI-3424 1 mg/kg IV, antibody 10 mg/kg IP (20 from Day 15)): 301.61 mm^3
Tumor volume, Mean ([1]; D 11, group mean, OBI-3424 1 mg/kg IV, antibody 10 mg/kg IP (20 from Day 15)): 339.50 mm^3
Tumor volume, Mean ([1]; D 14, group mean, OBI-3424 1 mg/kg IV, antibody 10 mg/kg IP (20 from Day 15)): 393.76 mm^3
Tumor volume, Mean ([1]; D 18, group mean, OBI-3424 1 mg/kg IV, antibody 10 mg/kg IP (20 from Day 15)): 735.09 mm^3
Tumor volume, Mean ([1]; D 21, group mean, OBI-3424 1 mg/kg IV, antibody 10 mg/kg IP (20 from Day 15)): 880.07 mm^3
Tumor volume, Mean ([1]; D 25, group mean, OBI-3424 1 mg/kg IV, antibody 10 mg/kg IP (20 from Day 15)): 947.95 mm^3
Tumor volume, Mean ([1]; D 28, group mean, OBI-3424 1 mg/kg IV, antibody 10 mg/kg IP (20 from Day 15)): 1171.03 mm^3
Tumor volume, Mean ([1]; D 32, group mean, OBI-3424 1 mg/kg IV, antibody 10 mg/kg IP (20 from Day 15)): 1366.17 mm^3
Tumor volume, Mean ([1]; D 35, group mean (mean±SEM), OBI-3424 1 mg/kg IV, antibody 10 mg/kg IP (20 from Day 15)): 1613.37±338.07 mm^3 and 1613.37 mm^3
Tumor weight, Mean ([1]; D 35, group mean, OBI-3424 1 mg/kg IV, antibody 10 mg/kg IP (20 from Day 15)): 1266.48 mg
mean tumor volume compared with vehicle (in words) ([1]; Day 35, vs vehicle (G1), Student's t-test): No statistically significant difference
effect on tumor growth (conclusion in words) ([1]; HepG2 humanized mouse model): no effect on tumor growth
TGI ([1]; from mean tumor volumes Day 35 vs Day 1, relative to vehicle, OBI-3424 1 mg/kg IV, antibody 10 mg/kg IP (20 from Day 15)): −9.69%
CD25^+ TH cells (CD45^+CD4^+ CD25^+) Total % ([2]; flow cytometer): 0.71% and 0.67% and 0.82% and 1.28% and 0.45%
PD-1^+ TH cells (CD45^+CD4^+ PD-1^+) Total % ([2]; flow cytometer): 20.78% and 11.99% and 9.21% and 11.61% and 15.49%
TH cells (CD45^+CD4^+) Total % ([2]; flow cytometer): 19.18% and 11.07% and 9.76% and 11.17% and 18.23%
TH cells (CD45^+CD4^+) CD45^+ Gated % ([2]; gate CD45^+ cells): 74.49% and 61.90% and 34.59% and 53.85% and 40.81%
CD25^+ TH cells (CD45^+CD4^+CD25^+) TH Gated % ([2]; gate CD45^+CD4^+ cells): 3.70% and 6.05% and 8.35% and 11.42% and 2.44%
PD-1^+ TH cells (CD45^+CD4^+ PD-1^+) TH Gated % ([2]; gate CD45^+CD4^+ cells): 96.11% and 90.08% and 83.23% and 82.55% and 85.27%
CD25^+ TH cells (CD45^+CD4^+ CD25^+) Cell count [2]: 2.16 ×10^5 and 2.35 ×10^5 and 0.78 ×10^5 and 1.65 ×10^5 and 0.31 ×10^5
PD-1^+ TH cells (CD45^+CD4^+ PD-1^+) Cell count [2]: 63.17 ×10^5 and 42.08 ×10^5 and 8.78 ×10^5 and 14.98 ×10^5 and 10.52 ×10^5
TH cells (CD45^+CD4^+) Cell count [2]: 58.31 ×10^5 and 38.86 ×10^5 and 9.30 ×10^5 and 14.41 ×10^5 and 12.38 ×10^5
CD8^+ cytotoxic T cells (CTL) population in tumors compared with vehicle (in words) ([3]; Example 1, TILs at sacrifice, flow cytometry): not observed
CD25^+ CTL cells (CD45^+CD8^+ CD25^+) Total % [3, 7]: 0.26% and 0.10% and 0.65% and 0.84% and 0.41%
CTL cells (CD45^+CD8^+) Total % [3, 7]: 9.30% and 6.22% and 21.30% and 11.17% and 24.91%
PD-1^+ CTL cells (CD45^+CD8^+ PD-1^+) Total % [3, 7]: 10.83% and 9.53% and 15.71% and 10.88% and 14.41%
CTL cells (CD45^+CD8^+) CD45^+ Gated % ([3]; TILs, gate CD45^+ cells, individual mice): 36.10% and 34.75% and 75.47% and 53.85% and 55.75%
CD25^+ CTL cells (CD45^+CD8^+ CD25^+) CTL Gated % [3, 8]: 2.80% and 1.53% and 3.05% and 7.48% and 1.65%
PD-1^+ CTL cells (CD45^+CD8^+ PD-1^+) CTL Gated % [3, 8]: 89.36% and 84.37% and 66.70% and 66.59% and 57.38%
CD25^+ CTL cells (CD45^+CD8^+ CD25^+) Cell count ([3]; TILs, individual mice): 0.79 ×10^5 and 0.35 ×10^5 and 0.62 ×10^5 and 1.08 ×10^5 and 0.28 ×10^5
CTL cells (CD45^+CD8^+) Cell count ([3]; TILs, individual mice): 28.27 ×10^5 and 21.83 ×10^5 and 20.30 ×10^5 and 14.41 ×10^5 and 16.91 ×10^5
PD-1^+ CTL cells (CD45^+CD8^+ PD-1^+) Cell count ([3]; TILs, individual mice): 32.92 ×10^5 and 33.45 ×10^5 and 14.97 ×10^5 and 14.04 ×10^5 and 9.78 ×10^5
CD16^+ NK cells (CD45^+CD56^+ CD16^+) Total % ([4]; flow cytometer): 0.41% and 0.32% (2×) and 0.44% and 0.79%
NK cells (CD45^+CD56^+) Total % ([4]; flow cytometer): 2.91% and 1.08% and 3.01% and 1.93% and 4.76%
PD-1^+ NK cells (CD45^+CD56^+PD-1^+) Total % ([4]; flow cytometer): 2.67% and 1.13% and 2.36% and 1.46% and 1.78%
NK cells (CD45^+CD56^+) CD45^+ Gated % ([4]; gate CD45^+ cells): 12.27% and 6.34% and 12.96% and 9.57% and 12.69%
CD16^+ NK cells (CD45^+CD56^+ CD16^+) NK Gated % ([4]; gate CD45^+CD56^+ cells): 13.94% and 29.77% and 14.48% and 16.58% and 16.61%
PD-1^+ NK cells (CD45^+CD56^+PD-1^+) NK Gated % ([4]; gate CD45^+CD56^+ cells): 99.81% and 100.00% and 87.08% and 98.31% and 64.90%
CD16^+ NK cells (CD45^+CD56^+ CD16^+) Cell count [4]: 1.25 ×10^5 and 1.12 ×10^5 and 0.42 ×10^5 and 0.41 ×10^5 and 0.54 ×10^5
NK cells (CD45^+CD56^+) Cell count [4]: 8.85 ×10^5 and 3.79 ×10^5 and 2.87 ×10^5 and 2.49 ×10^5 and 3.23 ×10^5
PD-1^+ NK cells (CD45^+CD56^+PD-1^+) Cell count [4]: 8.12 ×10^5 and 3.97 ×10^5 and 2.25 ×10^5 and 1.88 ×10^5 and 1.21 ×10^5
CD45^+ cells Cell count (×10^6) [5]: 7.83 ×10^6 and 6.28 ×10^6 and 2.69 ×10^6 and 2.68 ×10^6 and 3.03 ×10^6
CD45^+ cells Gated % [5]: 41.15% and 30.42% and 47.95% and 36.87% and 63.31%
CD45^+ cells Total % [5]: 25.75% and 17.89% and 28.22% and 20.74% and 44.68%
Total PD-L1^+ cells (PD-L1^+) Cell count (×10^5) [5]: 10.55 ×10^5 and 13.65 ×10^5 and 2.38 ×10^5 and 7.80 ×10^5 and 4.22 ×10^5
Total PD-L1^+ cells (PD-L1^+), Total % [5]: 3.47% and 3.89% and 2.50% and 6.05% and 6.21%
Total PD-L1^+ cells (PD-L1^+), Total cells Gated % [5]: 6.45% and 7.52% and 3.68% and 7.83% and 6.95%
Total cells Cell count (×10^6) [5]: 16.37 ×10^6 and 18.15 ×10^6 and 6.47 ×10^6 and 9.97 ×10^6 and 6.06 ×10^6
Total cells Gated % [5]: 53.84% and 51.71% and 67.88% and 77.26% and 89.23%
Total cells Total % [5]: 53.84% and 51.71% and 67.88% and 77.26% and 89.23%
Body Weight, Mean ([6]; Day 0, group mean): 22.84 g
Body Weight, Mean ([6]; Day 1, group mean): 22.47 g
Body Weight, Mean ([6]; Day 4, group mean): 23.47 g
Body Weight, Mean ([6]; Day 7, group mean): 23.48 g
Body Weight, Mean ([6]; Day 11, group mean): 23.90 g
Body Weight, Mean ([6]; Day 14, group mean): 23.94 g
Body Weight, Mean ([6]; Day 18, group mean): 24.30 g
Body Weight, Mean ([6]; Day 21, group mean): 23.59 g
Body Weight, Mean ([6]; Day 25, group mean): 23.42 g
Body Weight, Mean ([6]; Day 28, group mean): 22.52 g
Body Weight, Mean ([6]; Day 32, group mean): 22.55 g
Body Weight, Mean ([6]; Day 35, group mean): 22.77 g
